From patent EP3772943B1, “FORMULATION OF INSECTICIDAL MIXTURES WITH PROPYLENE CARBONATE” (Bayer Aktiengesellschaft, priority 2018, dated 2019)

Tested on: enzymatisch isolierte Kutikeln von Apfelbaumblättern
Assay: Cuticle penetration test in diffusion cells with HPLC read-out (Beispiel V)
Format: in vitro ADME, Apfelbäumen
Details: active substances without additives and in presence of propylene carbonate (Tabelle V, Eintrag 1,2)
Text: In diesem Test wird die Penetration von Wirkstoffen durch enzymatisch isolierte Kutikeln von Apfelbaumblättern gemessen.
Verwendet werden Blätter, die in voll entwickeltem Zustand von Apfelbäumen abgeschnitten werden und nach der Methode beschrieben bei Schönherr und Riederer isoliert (Schönherr, J., Riederer, M. (1986)). Es werden nur die von Spaltöffnungen und Haaren freien Kutikeln der Blattoberseiten weiter verwendet. Die so gewonnenen Kutikularmembranen werden für Membran-Transport-Untersuchungen in Diffusionszellen (=Transportkammern) aus Edelstahl eingelegt. Dazu werden die Kutikeln mit einer Pinzette mittig auf die mit Silikonfett bestrichenen Ränder der Diffusionszellen plaziert und mit einem ebenfalls gefetteten Ring verschlossen. Die Anordnung ist so gewählt, dass die morphologische Außenseite der Kutikeln nach außen, also zur Luft, gerichtet ist, während die ursprüngliche Innenseite dem Inneren der Diffusionszelle zugewandt ist. Die Diffusionszellen sind mit Wasser bzw. mit einem Gemisch aus Wasser und Lösungsmittel gefüllt und auf des physiologisch relevante pH von 5.5 gepuffert. Das Medium der Diffusionszellen soll das Apoplast, also das natürliche Aufnahmemdium im inneren des Blattes nachstellen. […]

Question: Which Kutikelpenetration does the source give for `O=C1C=C(N(Cc2ccc(Cl)nc2)CC(F)F)CO1` [Flupyradifurone] here?
Answer: The Kutikelpenetration was “keine oder kaum Kutikelpenetration”.
